# Reference: PubChem BioAssay AID328 (DTP/NCI, 2004)
# Where “and” joins values, the source holds several entries; their conditions need not be identical. Identical values can stand only once. Toxic doses and inconclusive results are not listed.
# System: BDF1 mice, P388 leukemia ip, median survival T/C
# Experiment: NCI In Vivo Anticancer Drug Screen. Data for tumor model P388 Leukemia (intraperitoneal) in B6D2F1 (BDF1) mice
# Details: endpoint: median survival time, higher = longer survival
# Summary of the method: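 Read-out is survival of treated animals expressed relative to the vehicle group, as a T/C ratio.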
# [1] = dose: 100.0 mg/kg/injection, schedule: Q04DX003 (ip), vehicle: saline with Tween-80
# [2] = dose: 200.0 mg/kg/injection, schedule: Q04DX003 (ip), vehicle: saline with Tween-80
# [3] = dose: 400.0 mg/kg/injection, schedule: Q04DX003 (ip), vehicle: saline with Tween-80
# [4] = dose: 50.0 mg/kg/injection, schedule: Q01DX009 (ip), vehicle: saline with Tween-80
# [5] = dose: 100.0 mg/kg/injection, schedule: Q04DX003 (ip), vehicle: Klucel (hydroxypropylcellulose) (HPC)
# [6] = dose: 200.0 mg/kg/injection, schedule: Q01DX009 (ip), vehicle: Klucel (hydroxypropylcellulose) (HPC)
# [7] = dose: 200.0 mg/kg/injection, schedule: Q04DX003 (ip), vehicle: Klucel (hydroxypropylcellulose) (HPC)
# [8] = dose: 400.0 mg/kg/injection, schedule: Q01DX009 (ip), vehicle: Klucel (hydroxypropylcellulose) (HPC)
# [9] = dose: 400.0 mg/kg/injection, schedule: Q04DX003 (ip), vehicle: Klucel (hydroxypropylcellulose) (HPC)
# [10] = dose: 25.0 mg/kg/injection, schedule: Q01DX009 (ip), vehicle: saline
# [11] = dose: 50.0 mg/kg/injection, schedule: Q01DX009 (ip), vehicle: saline
# [12] = dose: 100.0 mg/kg/injection, schedule: Q01DX009 (ip), vehicle: saline with Tween-80
# [13] = dose: 200.0 mg/kg/injection, schedule: Q01DX009 (ip), vehicle: saline with Tween-80
# [14] = dose: 12.5 mg/kg/injection, schedule: Q01DX009 (ip), vehicle: saline
# [15] = dose: 100.0 mg/kg/injection, schedule: Q01DX009 (ip), vehicle: Klucel (hydroxypropylcellulose) (HPC)
# [16] = dose: 50.0 mg/kg/injection, schedule: Q01DX005 (ip), vehicle: saline with Tween-80
# [17] = dose: 100.0 mg/kg/injection, schedule: Q01DX005 (ip), vehicle: saline with Tween-80
compound,measurement,setting,value
NC(=O)C1=NNc2ccccc2C(=O)N1c1ccccc1,T/C,[1],108 % of control
same,T/C,[2],113 % of control
same,T/C,[3],103 % of control
Nc1nc(F)nc2nc[nH]c12,T/C,"dose: 10.0 mg/kg/injection, schedule: Q01DX009 (ip), vehicle: Klucel (hydroxypropylcellulose) (HPC)",121 % of control
same,T/C,"dose: 20.0 mg/kg/injection, schedule: Q01DX009 (ip), vehicle: Klucel (hydroxypropylcellulose) (HPC)",121 % of control
NC(=S)/N=C\C(CC(O)C(O)C(O)CO)=N\NC(N)=S (centres undefined),T/C,"dose: 6.25 mg/kg/injection, schedule: Q01DX009 (ip), vehicle: saline with Tween-80",88 % of control and 97 % of control and 100 % of control
same,T/C,"dose: 12.5 mg/kg/injection, schedule: Q01DX009 (ip), vehicle: saline with Tween-80",99 % of control and 100 % of control and 108 % of control
same,T/C,[4],97 % of control and 115 % of control
COC1CCC(OC2CC(C3(C)CCC4(CC(O)C(C)C(C(C)/C=C(\C)C(=O)C(C)CC(C)C(=O)O)O4)O3)OC3(OC(C4OC(O)(CO)C(C)CC4C)CC3C)C2C)OC1C (centres undefined),T/C,"dose: 62.5 micrograms/kg/injection, schedule: Q01DX009 (ip), vehicle: Klucel (hydroxypropylcellulose) (HPC)",111 % of control
same,T/C,"dose: 125.0 micrograms/kg/injection, schedule: Q01DX009 (ip), vehicle: Klucel (hydroxypropylcellulose) (HPC)",97 % of control
same,T/C,"dose: 250.0 micrograms/kg/injection, schedule: Q01DX009 (ip), vehicle: Klucel (hydroxypropylcellulose) (HPC)",97 % of control
same,T/C,"dose: 500.0 micrograms/kg/injection, schedule: Q01DX009 (ip), vehicle: Klucel (hydroxypropylcellulose) (HPC)",97 % of control
CCCNC1=C(N2CC2)C(=O)C(NCCC)=C(N2CC2)C1=O,T/C,"dose: 1.5 mg/kg/injection, schedule: Q01DX009 (ip), vehicle: saline",161 % of control
same,T/C,"dose: 3.0 mg/kg/injection, schedule: Q01DX009 (ip), vehicle: saline",166 % of control and 203 % of control
same,T/C,"dose: 6.0 mg/kg/injection, schedule: Q01DX009 (ip), vehicle: saline",251 % of control and 208 % of control
Cc1ccc(S(=O)(=O)N2CCC(=O)c3ccc(Cl)cc32)cc1,T/C,[5],100 % of control
same,T/C,[6],100 % of control
same,T/C,[7],104 % of control
same,T/C,[8],95 % of control
same,T/C,[9],104 % of control
O=C(O)C(OP(=O)(O)O)C(=O)O,T/C,[10],110 % of control
same,T/C,[11],95 % of control
same,T/C,"dose: 100.0 mg/kg/injection, schedule: Q01DX009 (ip), vehicle: saline",94 % of control
same,T/C,"dose: 200.0 mg/kg/injection, schedule: Q01DX009 (ip), vehicle: saline",100 % of control
CCOC(=O)/C(C#N)=C1/CCCN1,T/C,[12],104 % of control
same,T/C,[13],100 % of control
same,T/C,"dose: 400.0 mg/kg/injection, schedule: Q01DX009 (ip), vehicle: saline with Tween-80",100 % of control
CCCCCCCCCCCCCCCCP(=O)(OCCOCCCCCC)OCCOCCCCCC,T/C,"dose: 12.5 mg/kg/injection, schedule: Q01DX009 (ip), vehicle: alcohol",105 % of control
same,T/C,[14],87 % of control
same,T/C,"dose: 25.0 mg/kg/injection, schedule: Q01DX009 (ip), vehicle: alcohol",105 % of control
same,T/C,"dose: 82.5 mg/kg/injection, schedule: Q01DX001 (ip), vehicle: saline",100 % of control
same,T/C,"dose: 165.0 mg/kg/injection, schedule: Q01DX001 (ip), vehicle: saline",100 % of control
CC12C(C#N)=C(c3ccccc3)C=C(c3ccccc3)C1=C(c1ccccc1)c1ccccc12 (centres undefined),T/C,[5],108 % of control
same,T/C,[7],95 % of control
same,T/C,[9],91 % of control
O=c1nc(-c2ccccc2)nc2ccccn12,T/C,[4],101 % of control
same,T/C,[12],106 % of control
same,T/C,[13],111 % of control
CCN(C(=O)CCl)C(C)(C)C(SSSC(c1ccc(Cl)cc1)C(C)(C)N(CC)C(=O)CCl)c1ccc(Cl)cc1 (centres undefined),T/C,[14],118 % of control
same,T/C,"dose: 16.5 mg/kg/injection, schedule: Q01DX009 (ip), vehicle: saline",116 % of control
same,T/C,[10],116 % of control
same,T/C,"dose: 37.5 mg/kg/injection, schedule: Q01DX009 (ip), vehicle: saline",116 % of control
same,T/C,[11],118 % of control
C(=NCCc1ccccc1)c1ccccc1B1OB(c2ccccc2C=NCCc2ccccc2)OB(c2ccccc2C=NCCc2ccccc2)O1,T/C,[15],88 % of control
same,T/C,[5],100 % of control
same,T/C,[6],105 % of control
same,T/C,[8],88 % of control
same,T/C,[9],91 % of control
Nc1ccc(CCc2ccc(N)cc2[N+](=O)[O-])c([N+](=O)[O-])c1,T/C,[15],100 % of control
same,T/C,[6],100 % of control
same,T/C,[8],100 % of control
COc1cc2oc3c(c(=O)c2c(O)c1/C=C/C(C)C)C(C=C(C)C)Oc1cc(O)ccc1-3 (centres undefined),T/C,"dose: 6.25 mg/kg/injection, schedule: Q01DX009 (ip), vehicle: Klucel (hydroxypropylcellulose) (HPC)",94 % of control
same,T/C,"dose: 12.5 mg/kg/injection, schedule: Q01DX009 (ip), vehicle: Klucel (hydroxypropylcellulose) (HPC)",110 % of control
same,T/C,"dose: 25.0 mg/kg/injection, schedule: Q01DX009 (ip), vehicle: Klucel (hydroxypropylcellulose) (HPC)",108 % of control
same,T/C,"dose: 50.0 mg/kg/injection, schedule: Q01DX009 (ip), vehicle: Klucel (hydroxypropylcellulose) (HPC)",100 % of control
same,T/C,[15],107 % of control
CCOCCOCCOc1nc(F)c(Cl)cc1Cl,T/C,[1],100 % of control
same,T/C,[2],118 % of control
CCOC(=O)/C(C#N)=C/N=c1ccccn1C,T/C,"dose: 6.25 mg/kg/injection, schedule: Q04DX002 (ip), vehicle: saline with Tween-80",101 % of control
same,T/C,"dose: 12.5 mg/kg/injection, schedule: Q04DX002 (ip), vehicle: saline with Tween-80",101 % of control
same,T/C,"dose: 25.0 mg/kg/injection, schedule: Q04DX002 (ip), vehicle: saline with Tween-80",101 % of control
CC(=O)N\C(N)=N/N=C\C(C)=N/N=C(\N)NC(C)=O,T/C,[4],97 % of control
same,T/C,[12],100 % of control
same,T/C,[13],100 % of control
CC(C)(C)C1CNP(=O)(c2ccccc2)OC1 (centres undefined),T/C,[16],99 % of control
same,T/C,[17],101 % of control
same,T/C,"dose: 200.0 mg/kg/injection, schedule: Q01DX005 (ip), vehicle: saline with Tween-80",100 % of control
COc1cccc2c1C(=O)c1c(O)c3c(c(O)c1C2=O)CC(O)(C(=O)CO)CC3OC1CC(N)C(O)C(C)O1 (centres undefined),T/C,"dose: 1.73 mg/kg/injection, schedule: Q01DX004 (ip), vehicle: water",234 % of control
same,T/C,"dose: 2.88 mg/kg/injection, schedule: Q01DX004 (ip), vehicle: water",246 % of control
same,T/C,"dose: 4.8 mg/kg/injection, schedule: Q01DX004 (ip), vehicle: water",283 % of control
same,T/C,"dose: 6.48 mg/kg/injection, schedule: Q04DX003 (ip), vehicle: saline",158 % of control
same,T/C,"dose: 10.8 mg/kg/injection, schedule: Q04DX003 (ip), vehicle: saline",169 % of control
same,T/C,"dose: 18.0 mg/kg/injection, schedule: Q04DX003 (ip), vehicle: saline",187 % of control
same,T/C,"dose: 30.0 mg/kg/injection, schedule: Q04DX003 (ip), vehicle: saline",116 % of control
O=C(N=Nc1c(O)[nH]c2c(Cl)cc(Cl)cc12)c1ccccc1O,T/C,[4],90 % of control
same,T/C,[12],87 % of control
same,T/C,[13],96 % of control
O=C1C2CCCCC1C(N1CCCC1)CC2 (centres undefined),T/C,"dose: 100.0 mg/kg/injection, schedule: Q04DX003 (sc), vehicle: olive oil, sesame oil, peanut oil",100 % of control
same,T/C,"dose: 200.0 mg/kg/injection, schedule: Q04DX003 (sc), vehicle: olive oil, sesame oil, peanut oil",86 % of control
same,T/C,"dose: 400.0 mg/kg/injection, schedule: Q04DX003 (sc), vehicle: olive oil, sesame oil, peanut oil",100 % of control
O=C(Nc1cc(Cl)ccc1C(=O)O)c1cccc(C[n+]2ccccc2)c1,T/C,[16],111 % of control
same,T/C,[17],111 % of control
CC(=O)Oc1cc(OCCCc2ccc(F)cc2)cc2c1-c1ccccc1CC2,T/C,[1],99 % of control
same,T/C,[2],89 % of control
same,T/C,[3],97 % of control
O=C1NC(=O)C2(CCCCCC2)N1,T/C,[4],100 % of control
same,T/C,"dose: 50.0 mg/kg/injection, schedule: Q04DX003 (ip), vehicle: saline with Tween-80",112 % of control
same,T/C,[12],112 % of control
same,T/C,"dose: 100.0 mg/kg/injection, schedule: Q04DX003 (ip), vehicle: saline sonified",95 % of control
same,T/C,[1],104 % of control
same,T/C,[13],108 % of control
same,T/C,"dose: 200.0 mg/kg/injection, schedule: Q04DX003 (ip), vehicle: saline sonified",95 % of control
same,T/C,[2],100 % of control
same,T/C,"dose: 400.0 mg/kg/injection, schedule: Q04DX003 (ip), vehicle: saline sonified",104 % of control
O=C(NC(Cc1nn[nH]n1)C(=O)OCc1ccccc1)OCc1ccccc1 (centres undefined),T/C,[12],100 % of control
same,T/C,[1],111 % of control
same,T/C,[13],96 % of control
same,T/C,[2],94 % of control
same,T/C,[3],87 % of control
